Key:
[1] = tested on: human immunodeficiency virus (HIV) strain 1(RF); set-up: method as in http://dtp.cancer.gov/dtpstandard/AIDSData/index.jsp; conditions: ref http://dtp.cancer.gov/dtpstandard/AIDSData/index.jsp; cited from earlier work
Solubility in water = type: physicochemical
HCT-116 cells = assay: Cell survival (MTT assay), HCT-116; type: cell-based, human; conditions: for cytotoxic effect: 48 h; for IC50: Homo sapiens, HCT-116, 48 h
Procedure: (§1) The survival of cells was determined by MTT (3-(4,5-Dimethylthiazol-2yl-)-2,5-diphenyl tetrazolium bromide) assay (ATCC, Manassas, VA, USA). In principle, the viable cell number is directly proportional to the purple formazan color of the reduced MTT dye, which can be quantitatively measured by spectrophotometry. Briefly, 1,500 cells were plated in quadruplets in 96-well flat-bottom tissue culture plates. After treatment with compounds for certain periods as described in respective figure legends, 10 μl of MTT reagent was added to each well and incubated at 37°C for 4 h to allow the formation of purple color crystals of formazan. In total, 100 μl of detergent solution was added to each well, and the reaction mixture was incubated in dark for 2–4 h at room temperature. The developed color density was then measured spectrophotometrically at 570 nm using the POLARstar Omega micro-plate reader (BMG Labtech, Inc., Cary, NC, USA).

HT29 cells = assay: Cell cycle profile by FACS; type: cell-based, human; conditions: 2 mM HU 24 h
Procedure: For determining the cell cycle profile, cells were plated in 60 mm tissue culture dishes and grown until 60% confluence. […] After treatment, cells were harvested at different time intervals, washed with ice-cold PBS and processed for FACS analysis as described previously. The ranges for G0/G1, S, and G2/M phase arrested and sub-G1 apoptotic cells were established on the basis of the corresponding DNA content of the histograms. At minimum, 10,000 cells were counted from each sample.

[2] = tested on: Chk1 phosphorylation in HT29 cells; assay: Western blot of total and phosphorylated Chk1, HT29; type: cell-based, human; conditions: 2 mM HU 24 h
Procedure: (§2) The levels of various proteins were determined by Western blot analysis with our previously described procedure. The antibodies for phospho-Chk1(Ser317), phospho-Chk1(Ser317), phospho-Chk1(Ser319), phospho-Chk1(Ser345), Chk1, and GAPDH were purchased from Cell Signaling Technology (Danvers, MA, USA).

HCT116(p53−/−) cells = assay: MTT assay, IC50 of HU, HCT116(p53−/−); type: cell-based, human; conditions: 72 h, compared with HCT116(p53+/+) cells
Procedure: as §1

LS174T cells = assay: Cell survival (MTT assay), LS174T; type: cell-based; conditions: Homo sapiens, drug alone, 48 h
Procedure: as §1

[3] = set-up: method as in PMID 20482808; conditions: cited from earlier work
CA2 CRC stem cell line = assay: Spheroid (sphere) formation assay; type: cell-based; conditions: Homo sapiens; drug alone, seventh day
Procedure: Live CA2 cells (100) were seeded in 384-well ultra-low attachment plates. Next, day cells were treated with different concentrations of NSC49L and 5-FU either alone or in combination. Cells were incubated for 7 days and the number of spheroids were counted in control and treated groups under an Olympus inverted microscope with a 10× magnification.

[4] = tested on: HCoEpiC normal colonic epithelial cell line; assay: Cell survival (MTT assay), HCoEpiC; type: cell-based; conditions: Homo sapiens, drug alone, 48 h
Procedure: as §1

[5] = tested on: ALDH1, KLF4, Nanog, Oct4, Sox2, c-Myc mRNA in CA2 cells; assay: Stem cell marker and self-renewal gene mRNA levels by qRT-PCR; type: cell-based, human; conditions: drug alone, 72 h, normalized with GAPDH
Procedure: Total RNA was isolated from control and treated cells with RNAzol reagent (Invitogen, Carlsbad, CA, USA). The expression of mRNA levels of stemness genes was determined by qRT-PCR using Bio-Rad CFX96 Real Time System C1000 Thermal Cycler. The primers used for amplification of mRNA levels of genes were from Celprogen, Inc., as shown here with their Gene Bank accession and catalog numbers: ALDHA1 (NM_000689, Cat. No. CepALDHA1-02), Klf4 (NM_004235, Cat No. CepKlf4-02), Nanog (NM_024865, Cat. No. CepNanog-02), Oct4 (NM_002701, Cat No. CepOct4-02), Sox2 (NM_003106, Cat. No. CepSox2-02), c-Myc (NM_002467, Cat. No. Cepc-Myc-02) and GAPDH (NM_002046, Cat. No. Cep-GAPDH-02).

[6] = tested on: human-derived CRC stem cell tumors; assay: Patient-derived tumor xenograft (PDTX) of CRC stem cell tumors; type: in vivo, female SCID mice; conditions: 20 mg/kg body weight 5-FU every day, 30 days
Procedure: With the pharmacokinetics analysis and MTD data in hand, we determined the efficacy of NSC49L and 5-FU alone and in combination for the growth of human-derived CRC stem cell tumors in vivo. CRC stem cells were isolated and characterized from the freshly resected human CRC tumor. One thousands of these CRC stem cells were injected subcutaneously into the right flank of the four 5-week old female SCID mice. After 20 days the first generation tumors (F0) of approximately 2,000 mm^3 in size were harvested. They were divided into four equal pieces and implanted under the skin of the female SCID mice for the growth of second generation tumors (F1) for testing the drug efficacy studies. We divided the F1 tumor bearing mice into four groups and treated them every day subcutaneously with drugs as follows: i) PBS control, (ii) 50 mg/kg body weight NSC49L, (iii) 20 mg/kg body weight 5-FU, and iv) 50 and 20 mg/kg body weight NSC49L and 5-FU, respectively, for 30 days. The treatment with drugs began after 10 days of tumor growth. The body weight and tumor volumes were recorded twice a weak. The experiment was terminated on the 32nd day.

LoVo cells = assay: Cell survival (MTT assay), LoVo; type: cell-based; conditions: Homo sapiens, drug alone, 48 h
Procedure: as §1

[7] = tested on: Chk1 phosphorylation in HCT-116 cells; assay: Western blot of total and phosphorylated Chk1, HCT-116; type: cell-based, human; conditions: 5-FU alone, 24 h
Procedure: as §2

SW480 cells = assay: Cell survival (MTT assay), SW480; type: cell-based; conditions: Homo sapiens, drug alone, 48 h
Procedure: as §1

RKO cells = assay: Cell survival (MTT assay), RKO; type: cell-based; conditions: Homo sapiens, drug alone, 48 h
Procedure: as §1

For `ClCC=CC[N+]12CN3CN(CN(C3)C1)C2` [NSC30049, 1-(4-Chloro-2-butenyl)-1λ∼5∼,3,5,7-tetraazatricyclo [3.3.1.1∼3,7∼] decane], the “Activity against HIV” value [1] is listed as “inactive” and the Solubility in water (Solubility in water) is listed as “readily soluble in water”.
In the case of `C1N2CN3CN1CN(C2)C3` [HMTA, hexamethylenetetramine, reference compound], the cytotoxic effect (HCT-116 cells; MTT assay, Figure 1B) is reported as “very little cytotoxic effect”.
In the case of `NC(=O)NO` [HU, hydroxyurea, reference compound], the “Cell cycle distribution G2/M” value (HT29 cells) is reported as 19.4%, the “Cell cycle distribution S (S-phase arrest)” value (HT29 cells) is reported as 27.7% and the “Cell cycle distribution S (S-phase arrest)” value (HT29 cells; HU withdrawn, 8 h drug-free medium) is reported as 42.4%. The “Phosphorylation of Chk1 at S317, S345 and S296” value [2] was “increased” and the “IC50 of HU” value (HCT116(p53−/−) cells) was “decreased”.
For `ClC/C=C\C[N+]12CN3CN(CN(C3)C1)C2` [c-NSC30049], the IC50 (HCT-116 cells; MTT assay, Figure 1B, three experiments) was 7.2 µM.
For `O=c1[nH]cc(F)c(=O)[nH]1` [5-FU, 5-fluorouracil], the IC50 (LS174T cells) is given as 51 ± 3.8 µM, the IC50 (HCT-116 cells; drug alone, MTT, Table 1, four estimations) is given as 11.5 ± 1.5 µM and the “AUC (bioavailability)” value [3] is given as 59710 ± 10580 ng·h/mL. The t1/2 [3] was 12.6 ± 3.6 min, the IC50 (CA2 CRC stem cell line) was 7.5 µM and the IC50 [4] was 513 ± 22 µM. For the same molecule, the “mRNA levels of ALDH1, KLF4, Nanog, Oct4, Sox2 and c-Myc” value [5] was “decreased”, the “Growth of CRC stem cell tumors” value [6] was “initially appreciable; however after the 21st day of treatment growth of the tumors resumed” and the IC50 (LoVo cells) was 22 ± 0.9 µM. The “Chk1 phosphorylation (S317, S345, S296)” value [7] was “increased phosphorylation at all three Chk1 sites”, the IC50 (SW480 cells) was 113 ± 6 µM and the IC50 (RKO cells) was 68 ± 10.4 µM.
With `CC[N+](CC)(CC)CC=CCCl.[Cl-]` [CBTA, (4-Chloro-but-2-enyl)triethylammonium chloride, reference compound] the cytotoxic effect (HCT-116 cells; MTT assay, Figure 1B) was “very little cytotoxic effect”.
